Results taken from patent publication US7314614B1, “Recombinant sendai virus vector for introducing exogenous genes to airway epithelia” (priority 1999, dated 2008).

Molecular target: T1, CFTR (Homo sapiens, UniProt P13569)
T1 construct: expressed in transfected cells; host or cells: COS7 cells infected with the recombinant Sendai virus SeV/CFTR (CFTR cDNA in the NotI site of pSeV18+b(+))
Test: Whole-cell patch clamp of COS7 cells infected with CFTR-expressing Sendai virus
Assay type: cell-based
Conditions: COS7 cells expressing sample-1 SeV/CFTR
Description: COS7 cells were infected with the prepared CFTR-expressing Sendai virus (sample-1 SeV/CFTR), and the obtained infected cells were analyzed by the whole-cell patch clamp technique. […] A glass pipette containing a pipette solution was contacted with a cell within a bath solution, and negative pressure was applied to remove the cell membranes. In this occasion, the pipette solution contains 145 mM NMDG^+, 148.4 mM Cl^−, […], 5 mM ATP, 10 mM glucose, 0.1 mM EGTA, and 10 mM HEPES (titrated by Tris, pH 7.4), and the bath solution contains 141 mM Na^+, 152.4 mM Cl^−, […], 5 mM K^+, 1.7 mM Mg^2+, 2 mM Ca^2+, 10 mM glucose, 0.1 mM EGTA, and 10 mM HEPES (titrated by Tris, pH 7.4). The effects of forskolin on the membrane current in COS7 cells expressing sample-1 SeV/CFTR were examined by whole-cell recording (FIG. 14). […] The influx current was reproduced by adding forskolin again after a single wash, and was again suppressed by glibenclamide, which confirmed that the observed change in current was a specific drug-induced response.

T1 sequence (P13569 whole entry): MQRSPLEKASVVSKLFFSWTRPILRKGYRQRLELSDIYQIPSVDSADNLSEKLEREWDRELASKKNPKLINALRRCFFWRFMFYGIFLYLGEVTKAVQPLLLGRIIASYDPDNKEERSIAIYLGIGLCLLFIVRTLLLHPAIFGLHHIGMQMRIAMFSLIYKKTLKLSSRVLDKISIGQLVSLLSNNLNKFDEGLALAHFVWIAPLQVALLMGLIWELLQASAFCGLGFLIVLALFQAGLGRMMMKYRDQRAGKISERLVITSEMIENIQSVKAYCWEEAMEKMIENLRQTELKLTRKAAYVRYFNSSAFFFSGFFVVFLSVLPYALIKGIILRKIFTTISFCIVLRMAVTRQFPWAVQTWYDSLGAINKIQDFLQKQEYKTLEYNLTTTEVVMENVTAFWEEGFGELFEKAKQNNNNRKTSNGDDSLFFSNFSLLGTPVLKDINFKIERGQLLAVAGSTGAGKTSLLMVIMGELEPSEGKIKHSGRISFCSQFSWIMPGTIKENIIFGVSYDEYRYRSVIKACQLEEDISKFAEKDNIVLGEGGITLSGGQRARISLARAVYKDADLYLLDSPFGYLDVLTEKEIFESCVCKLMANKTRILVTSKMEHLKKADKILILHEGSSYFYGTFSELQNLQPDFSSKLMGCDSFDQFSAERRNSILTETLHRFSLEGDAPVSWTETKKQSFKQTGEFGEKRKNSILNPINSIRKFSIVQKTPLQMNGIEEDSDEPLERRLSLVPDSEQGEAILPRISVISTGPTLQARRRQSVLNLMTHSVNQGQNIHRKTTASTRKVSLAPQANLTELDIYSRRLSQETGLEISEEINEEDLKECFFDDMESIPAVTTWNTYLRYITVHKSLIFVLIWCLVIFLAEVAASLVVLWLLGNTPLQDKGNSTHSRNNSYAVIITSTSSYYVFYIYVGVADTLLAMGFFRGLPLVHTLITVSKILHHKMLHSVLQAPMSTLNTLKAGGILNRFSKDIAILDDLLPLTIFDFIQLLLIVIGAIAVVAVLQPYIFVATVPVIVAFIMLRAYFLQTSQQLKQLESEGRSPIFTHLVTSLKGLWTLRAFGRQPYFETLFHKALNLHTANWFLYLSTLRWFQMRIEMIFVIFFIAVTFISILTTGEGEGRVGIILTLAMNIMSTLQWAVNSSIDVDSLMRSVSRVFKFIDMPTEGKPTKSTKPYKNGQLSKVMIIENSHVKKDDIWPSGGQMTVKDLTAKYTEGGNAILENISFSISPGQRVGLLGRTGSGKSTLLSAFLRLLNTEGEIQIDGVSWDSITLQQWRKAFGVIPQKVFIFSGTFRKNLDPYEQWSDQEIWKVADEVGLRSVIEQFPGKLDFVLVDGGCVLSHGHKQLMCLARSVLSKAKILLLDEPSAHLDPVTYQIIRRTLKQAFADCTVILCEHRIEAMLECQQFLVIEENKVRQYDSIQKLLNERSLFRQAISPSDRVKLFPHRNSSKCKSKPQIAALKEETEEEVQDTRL

SMILES: COc1ccc(Cl)cc1C(=O)NCCc1ccc(S(=O)(=O)NC(=O)NC2CCCCC2)cc1 [Glibenclamide]
- effect on forskolin-induced Cl− currents (300 μM): inhibited
- effect on forskolin-induced influx current (whole-cell recording, reproduced after wash (FIG. 14)): suppressed
